Measurements taken from patent publication US6472145B2, “Method and composition for modulating amyloidosis” (priority 1998, dated 2002).
Where two headings read alike, the source gives them in different places.

Tests used:
[1] = tested on: APP carrying the AD-linked double "Swedish" mutation (K695sw cells); conditions: for Aβ release: FCCP 5 μM, 500 nM, 50 nM
Procedure: (§1) Human embryonic kidney (HEK) 293 cells stably transfected with either wild-type APP695 (K695 cells) or APP carrying the AD-linked double “Swedish” mutation (K695sw cells)(30) were cultured in DMEM supplemented with sodium pyruvate (1 mM) and 10% fetal calf serum as previously described (31). Cells were plated at 1,000,000 cells per well in 35 mm^2 culture dishes (Corning™) 24 hours prior to drug exposure. Preceding the addition of drugs, cultures are washed once with warm PBS (37° C.) and then exposed to various treatments in DMEM supplemented with sodium pyruvate (1 mM). Cultures were then exposed to either control media, vehicle (0.05% ethanol), or varying concentrations of FCCP (5 μM, 500 nM, 50 nM). Either 30 minutes or 4 hours after the addition of drugs, the media was removed, the cultures washed once with ice-cold PBS, and then harvested in 100 μl of ice-cold lysis buffer containing 20 mM MOPS (pH 7.2), 5 mM EDTA, 0.01% NP-40, 75 mM β-glycerol phosphate, […], […], 50 mM phosphatase substrate, […], and 1 mg/ml each of leupeptin, aprotinin and pepstatin.
(§2) To examine extracellular APP fragments, the media was retained and centrifuged at 4° C. for 10 min at 16,000 X g to remove cellular debris. Extracellular protein was then precipitated by 10% trichloroacetic acid as previously described (31). Subsequently, secreted APPsα was determined by 10% Tris-Glycine SDS-PAGE Western Blot analysis using the monoclonal antibody WO-2, generated against the first 16 amino acids of the N-terminal region of Aβ (32). Similarly, extracellular Aβ release was examined by 16% Tris-Tricine SDS-PAGE Western Blot analysis using the WO-2 antibody (32). For examination of intracellular APP fragments, cultures were harvested in ice-cold lysis buffer and then sonicated for 8 seconds on ice. Cellular protein levels were quantified using the BCA protein assay (Pierce, Rockford, Ill.) and 10 μg of cellular protein were then separated by either 10% Tris-Glycine or 16% Tris-Tricine SDS-PAGE. Intracellular C100 and total APP were quantitated, respectively, by 16% Tris-Tricine Western Blot analysis using the WO-2 antibody and 10% Tris-Glycine Western Blot analysis using an anti-APP N-terminal antibody (22C11, Boehringer Mannheim, Laval, QC). A diagram of the catabolic fragments of APP and the epitopes to which each antibody binds is depicted in FIG. 1. […] The wavy line represents the plasma membrane. The enzyme α-secretase (α-left) cleaves APP within the Aβ sequence (represented by the heavy line), resulting in release of the ectodomain fragment known as APPsα. The enzymes β and γ secretase (β, γ, right) sequentially cleave APP on either side of the Aβ sequence. β secretase cleavage results in the release of the ectodomain fragment known as APPsβ and production of the cellular fragment known as C100; following γ-secretase cleavage, extracellular Aβ is released. Probing the cellular fraction with antibody 22C11 identifies total cellular APP. Probing the cellular fraction with WO-2 identifies C100 (distinguished by molecular weight). Probing the extracellular fraction with WO-2 identifies both APPsα and Aβ (distinguished by molecular weight).
(§3) Cellular (C100 and total APP) and extracellular (APPsα and Aβ ) APP catabolic fragments were separated using SDS PAGE with either 10% Tris-Glycine (for APPsα and total APP) or 16% Tris-Tricine (for C100 and Aβ) gels. Following electrophoretic separation, proteins were transferred to nitrocellulose membranes and probed with either the monoclonal antibody WO-2 to detect C100, APPsα and Aβ, or 22C11 to detect total cellular APP. Immunoreactive bands were visualized using ECL detection (Amersham, Oakville, ON) and analyzed by standard autoradiographic and densitometric techniques as described (31).

[2] = tested on: wild-type APP695 (K695 cells); conditions: 4 hours
Procedure: as §1, §2, §3

K695sw cells [3] = test: Quantification of cellular ATP levels (luciferase/luciferin); assay type: cell-based, Human; conditions: various concentrations, 30 minutes or 4 hours
Procedure: 20 μl aliqouts of ATP standards and samples were then assayed for ATP content using a luciferase/luciferin ATP determination kit (A-6608, Molecular Probes, Eugene, Oreg.). ATP-dependent luminescence was quantified using an Optocomp® II luminometer (MGM Instruments, Hamden, Conn.) and ATP levels were determined by extrapolation from a standard curve. […] As a positive control, the effect of combined treatment with various concentrations of sodium azide and 2-deoxy-D-glucose (NaA/DG) was also examined in these studies.

[4] = tested on: mitochondrial membrane potential; conditions: 1 μM FCCP; cited from earlier work
cellular ATP levels = conditions: 30 μM FCCP for 2 hours; cited from earlier work
K695sw cells [5] = conditions: 5 μM, 500 nM or 50 nM, 24 hours
Procedure: Cell viability was quantified based on the exclusion of the membrane impermeant probe, YO-PRO (Molecular Probes, Eugene, Oreg.). K695sw cells were maintained and exposed to vehicle or various concentrations of FCCP as described above with the exception that cells were plated at a density of 20,000 cells/well in 96-well plates (Falcon®). Twenty-four hours after plating, cells were exposed to various treatments in DMEM supplemented with sodium pyruvate (1 mM) and 10% fetal bovine serum. At the same time as drug exposures, YO-PRO (4 μM) was added to each well and its uptake quantified every 30 minutes for 1 day at 37° C. using a Cytofluor™ 2350 fluorometric plate reader (Millipore, Mississauga, ON). As a positive control, all wells were exposed to 0.1% Triton X-100 at the end of the experiment.

K695 cells [6] = test: Lysosomal function: Lysosensor Yellow/Blue DND-160 uptake; assay type: cell-based, Human; conditions: FCCP 5 μM and 500 nM, baf A1 1 μM, NH4Cl 20 mM, 4 hrs
Procedure: (§4) Endosomal function was assessed by the fluorometric quantitation of the receptor-mediated uptake of both Texas Red and fluoroscein labelled transferrin (Molecular Probes, Eugene, Oreg.)(33-35). K695 cells were maintained as exposed to various treatments as mentioned with the exception that cells were plated at a density 200,000 cells/well in 24-well plates (Corning™). Twenty-four hours after plating, cells were exposed to various treatments in DMEM supplemented with sodium pyruvate (1 mM) and 10% fetal bovine serum. At the same time as drug exposures, both transferrin-Texas Red (Tf-Tx) and transferrin-fluoroscein (Tf-F) (10 μl/ml media of 5 mg/ml stocks in PBS) were added to each well and incubated for 4 hours at 37° C. Each well was then gently washed three times with warm media and uptake of fluorescent probes quantitated at 37° C. using a Cytofluor™ 2350 fluorometric plate reader (Millipore, Mississauga, ON). Quantitation of the non-pH-dependent Tf-Tx fluorescence and the pH-dependent Tf-F fluorescence was determined using excitation filters of 590 nm (bandwidth=20 nm); 485 nm (bandwidth=20 nm) and emission filters of 645 nm (bandwidth=40 nm); 530 nm (bandwidth=25 nm), respectively. Similarly, Lysosomal function was assayed by the uptake of the fluorescent probe, Lysosensor™ Yellow/Blue DND-160 (Molecular Probes, Eugene, Oreg.)(36). Assay of Lysosensor™ uptake was performed in an identical manner to that of the fluorescent labelled transferrin conjugates with the exception that the addition of 10 μl/ml media of Lysosensor™ was taken from a 1 mM stock solution in DMSO. Quantitation of the non-pH-dependent blue fluorescence and the pH-dependent yellow fluorescence was determined using an excitation filter of 360 nm (bandwidth=40 nm) and emission filters of 460 mn (bandwidth=40 nm) and 530 nm (bandwidth =25 nm), respectively. For all three probes examined, relative fluorescence was obtained from subtraction from sister wells which had not been exposed to fluorophores. […]

K695 cells [7] = test: Endosomal function: uptake of Tf-Tx and Tf-F labelled transferrin; assay type: cell-based, Human; conditions: 4 hrs; for impairment of endosomal function (decrease in Tf-Tx and Tf-F signals): baf A1 1 μM, NH4Cl 20 mM
Procedure: as §4

APP = conditions: background; NH4Cl at high concentrations; cited from earlier work
K695sw cells [8] = conditions: previous studies; cited from earlier work
[9] = tested on: cells expressing wild-type APP (K695 cells); conditions: previous studies; cited from earlier work

N#CC(C#N)=NNc1ccc(OC(F)(F)F)cc1 [FCCP, carbonyl cyanide p-(trifluoromethoxy)phenylhydrazone]
production of the ectodomain fragment APPsα (APPsα release) ([1]; 30 min and 4 hours): only affected by 4 hour exposure to 5 μM FCCP | formation of the C100 fragment (cellular C100) ([1]; 4 hours): concentration-dependent decrease in the formation of the C100 fragment | maturation of APP via N'/O' linked glycosylation ([1]; 4 hours): neither total cellular levels of APP nor the maturation of APP via N′/O′ linked glycosylation were affected | total cellular levels of APP ([1]; 4 hours): neither total cellular levels of APP nor the maturation of APP via N′/O′ linked glycosylation were affected | Aβ release ([1]; 30 min): concentration-dependent decrease in Aβ release | Aβ release ([1]; 4 hours): decreases in Aβ release were even more pronounced | APPsα production [2]: marked concentration-dependent decrease in APPsα production | Aβ production [2]: clearly inhibited Aβ production in a concentration-dependent manner | maturation of APP [2]: unaffected | total levels of cellular APP [2]: unaffected | cellular ATP levels (K695sw cells [3]): did not alter cellular ATP levels at any of the concentrations or time points measured | mitochondrial membrane potential [4]: sufficient to alter mitochondrial membrane potential | cellular ATP levels (cellular ATP levels): sufficient to modestly decrease cellular ATP levels | cell death as measured by membrane exclusion (YO-PRO) (K695sw cells [5]): no increase in cell death | lysosomal function (Lysosensor fluorescence) (K695 cells [6]): reductions in lysosomal function, albeit not as profound | endosomal functioning (Tf-Tx and Tf-F signals) (K695 cells [7]; FCCP 5 μM and 500 nM): did not significantly alter endosomal functioning

Cl.N [NH4Cl, ammonium chloride]
lysosomal function (Lysosensor fluorescence) (K695 cells [6]): profound reductions in lysosomal functioning | APP proteolytic processing / APP catabolism (APP): decrease APP proteolytic processing | impairment of endosomal function (decrease in Tf-Tx and Tf-F signals) (K695 cells [7]): approximately 50%

CO/C1=C\C(C)=C\[C@@H](C)[C@@H](O)[C@@H](C)C/C(C)=C/C=C/[C@H](OC)[C@@H]([C@@H](C)[C@@H](O)[C@H](C)[C@@]2(O)C[C@@H](O)[C@H](C)[C@@H](C(C)C)O2)OC1=O [baf A1, bafilomycin A1]
Aβ production (K695sw cells [8]): reduced Aβ production | lysosomal function (Lysosensor fluorescence) (K695 cells [6]): profound reductions in lysosomal functioning | APP proteolytic processing / APP catabolism (APP): alterations in APP catabolism which are both cell-type and APP mutation specific | impairment of endosomal function (decrease in Tf-Tx and Tf-F signals) (K695 cells [7]): approximately 50% | Aβ production [9]: lack of effect

CC[C@@]1([C@@H]2O[C@@H]([C@H]3O[C@@](O)(CO)[C@H](C)C[C@@H]3C)C[C@@H]2C)CC[C@H]([C@]2(C)CC[C@]3(C[C@H](O)[C@@H](C)[C@@H]([C@@H](C)[C@@H](OC)[C@H](C)C(=O)O)O3)O2)O1 [monensin]
APP proteolytic processing / APP catabolism (APP): decrease APP proteolytic processing
